Source: US20060182771A1, “Formulations for ocular treatment” (priority 2005, published 2006)

Test: Concentration of rapamycin in the vitreous of rabbit eyes after intravitreal injection of the self-emulsifying formulation (LCMS)
Assay type: in vivo, New Zealand white rabbits
Settings: full vitreous homogenized, average of four eyes
Protocol: 50 μl of the formulation described in Example 1 were injected into the vitreous of the eye of New Zealand white rabbits. The full vitreous, which included the area into which the self-emulsifying formulation was injected, was homogenized and analyzed at 1, 5, 24, 72 and 168 hours for the concentration of rapamycin remaining therein. The average concentration of the vitreous was calculated by dividing the mass of rapamycin measured by the volume of vitreous analyzed. The analysis was by liquid chromatography mass spectroscopy (LCMS). Each timepoint represents the average of two eyes of each of two rabbits (four eyes at each timepoint).
The average concentration of rapamycin at 1, 5, 24, 72 and 168 hours was about 347, about 401, about 273, about 18, and about 1 μg/μl, respectively.

In the case of `CO[C@H]1C[C@@H]2CC[C@@H](C)[C@@](O)(O2)C(=O)C(=O)N2CCCC[C@H]2C(=O)O[C@H]([C@H](C)C[C@@H]2CC[C@@H](O)[C@H](OC)C2)CC(=O)[C@H](C)/C=C(\C)[C@@H](O)[C@@H](OC)C(=O)[C@H](C)C[C@H](C)/C=C/C=C/C=C/1C` [rapamycin], the “average concentration of rapamycin in the vitreous” value (“average concentration of rapamycin” below) (1 hour after injection of 50 μl of the Example 1 formulation into the vitreous) is reported as “about 347 μg/μl”, the “average concentration of rapamycin” value (5 hours after injection of 50 μl of the Example 1 formulation into the vitreous) is reported as “about 401 μg/μl” and the “average concentration of rapamycin” value (24 hours after injection of 50 μl of the Example 1 formulation into the vitreous) is reported as “about 273 μg/μl”. The “average concentration of rapamycin” value (72 hours after injection of 50 μl of the Example 1 formulation into the vitreous) was “about 18 μg/μl” and the concentration at 168 h (New Zealand white, rabbit, vitreous (full vitreous homogenate), other: intravitreal injection, 168 hours after injection of 50 μl of the Example 1 formulation into the vitreous) was roughly 1000 µg/mL.
